Several values for one entry are separate records, joined by “and”; a condition that tells them apart may be missing. Identical values can stand only once. Like-named read-outs stand apart in the source and are kept apart here.
What was measured:
[1] = test system: HepG2 cell; assay: Class prediction of in vivo genotoxicity by the method of the invention (Ames stratification plus three-gene expression in HepG2); settings: 62 compounds, three replicates, HepG2 24 h
[2] = test system: PNMA6A; assay: Gene expression of PNMA6A in HepG2 cells exposed to compound (microarray, log2 treatment:control ratio); assay type: cell-based, human; settings: for Log2 treatment: control ratio PNMA6A: 24 h exposure, Ames negative compounds, one line per replicate of triplicate experiments
[3] = test system: SLC40A1; assay: Gene expression of SLC40A1 in HepG2 cells exposed to compound (microarray, log2 treatment:control ratio); assay type: cell-based, human; settings: for Log2 treatment: control ratio SLC40A1: 24 h exposure, Ames negative compounds, one line per replicate of triplicate experiments
[4] = test system: Salmonella typhimurium; settings: cited from earlier work
[5] = test system: rodents; settings: cited from earlier work
[6] = test system: C10orf65/HOGA1; assay: Gene expression of C10orf65/HOGA1 in HepG2 cells exposed to compound (microarray, log2 treatment:control ratio); assay type: cell-based, human; settings: for Log2 treatment: control ratio C10orf65/HOGA1: 24 h exposure, Ames negative compounds, one line per replicate of triplicate experiments; for C10orf65/HOGA1: expression versus reference value, single measurement of three
[7] = test system: conventional in vitro genotoxicity assays; settings: cited from earlier work
[8] = test system: HepG2 cell
[9] = HepG2 cells, expression versus reference value, single measurement of three

Row | Compound | Log2 treatment: control ratio PNMA6A ([2]; HepG2 cells) | Log2 treatment: control ratio SLC40A1 ([3]; HepG2 cells) | SLC40A1 [3, 9] | Ames [4] | Log2 treatment: control ratio C10orf65/HOGA1 [6] | C10orf65/HOGA1 [6] | In vitro GTX [7] | At least ⅔ genes +? [8] | Average result over three measurements [8] | Prediction (class prediction results using the method of the invention) [8] | PNMA6A [2, 9] | In vivo GTX ([5]; in vivo) | Standard ([5]; in vivo) | Ames ([4]; Ames results based on NTP data) | also measured
1 | CC1=CC(=O)[N-]S(=O)(=O)O1.[K+] [ASK] | 0.264 and 0.161 and −0.677 | −0.348 and −0.221 and 0.08 | − (below the reference value) | − | 0.014 and −0.015 and 0.083 | − (below the reference value) | − |  |  |  |  |  |  |  | Prediction (class prediction results using the method of the invention) [1]: NGTX; Standard ([5]; standard in vivo genotoxicity designation): NGTX
2 | ClC(Cl)Br [BDCM] | 0.22 and −0.289 and −0.185 | −0.891 and −0.178 and −0.017 | − (below the reference value) | − | 0.113 and 0.258 and 0.086 |  | + | NGTX | NGTX | NGTX | − (below the reference value) | − | NGTX |  | 
3 | O=C1CCCCCN1 [CAP] | 0.312 and −0.168 and −0.165 | −0.607 and −0.032 and 0.265 | − (below the reference value) |  | 0.203 and 0.223 and 0.138 |  | − |  | NGTX | NGTX+ |  | − | NGTX | − | 
4 | ClC(Cl)(Cl)Cl [CCl4] | 0.412 and −0.425 and −0.14 | −0.888 and −0.041 and −0.185 |  | − | 0.361 and 0.073 and −0.083 |  | + |  |  | NGTX+ |  | − |  |  | 
5 | O=c1ccc2ccccc2o1 [Cou] | 0.073 and 0.081 | −0.215 and −0.309 | − (below the reference value) |  | −0.481 and −0.483 | − (below the reference value) | − | NGTX | NGTX | NGTX | − (below the reference value) | − | NGTX | − | Log2 treatment: control ratio PNMA6A ([2]; HepG2 cells, listed as COU): 0.14; Log2 treatment: control ratio SLC40A1 ([3]; HepG2 cells, listed as COU): −0.104; Log2 treatment: control ratio C10orf65/HOGA1 ([6]; listed as COU): −0.069
6 | COc1cc(/C=C/C(=O)CC(=O)/C=C/c2ccc(O)c(OC)c2)ccc1O [Cur] | −0.138 and −0.135 and 0.263 | 0.174 and 0.252 and 0.253 | − (below the reference value) |  | 0.113 and 0.028 and −0.293 | − (below the reference value) | + | NGTX | NGTX | NGTX |  | − | NGTX | − | 
7 | CCCCC(CC)COC(=O)c1ccccc1C(=O)OCC(CC)CCCC (centres unmarked) [DEHP] |  |  | − (below the reference value) | − |  | − (below the reference value) | − | NGTX | NGTX | NGTX | − (below the reference value) |  | NGTX |  | Log2 treatment: control ratio PNMA6A ([2]; HepG2 cells, listed as DEPH): −0.264 and −0.841 and −0.034; Log2 treatment: control ratio SLC40A1 ([3]; HepG2 cells, listed as DEPH): 0.249 and −0.387 and 0.234
8 | CC/C(=C(/CC)c1ccc(O)cc1)c1ccc(O)cc1 [DES] | 0.286 and 0.203 and 0.135 | 1.504 and 0.717 and 0.723 | + (above the reference value) |  | 0.146 and 0.516 and 0.206 | + (above the reference value) | + | GTX | GTX | GTX |  | + | GTX | − | 
9 | C[C@]12CC[C@@H]3c4ccc(O)cc4CC[C@H]3[C@@H]1CC[C@@H]2O [E2, Estradiol] |  |  | − (below the reference value) |  |  |  |  |  |  |  | − (below the reference value) |  |  |  | Prediction (class prediction results using the method of the invention) [1]: NGTX
10 | C=CCc1ccc(O)c(OC)c1 [EuG] | 0.39 and 0.124 and 0.031 | 0.161 and 0.712 and 0.293 |  |  | −0.156 and 0.3 and −0.066 |  | + |  | NGTX | NGTX+ |  | − | NGTX | − | 
11 | Oc1ccccc1 [Ph, Phenol] |  |  |  | − |  |  | + | GTX | GTX | GTX |  | + | GTX |  | PNMA6A [2]: + (key: +: above the reference value; −: below the reference value); SLC40A1 [3]: + (key: +: above the reference value; −: below the reference value)
12 | COC(=O)[C@H]1[C@H]2C[C@@H]3c4[nH]c5cc(OC)ccc5c4CCN3C[C@H]2C[C@@H](OC(=O)c2cc(OC)c(OC)c(OC)c2)[C@@H]1OC [Res] | 0.09 and −0.624 and 0.288 | 0.398 and −0.212 and −0.057 |  |  | 0.047 and 6.45E−05 and −0.043 | − (below the reference value) | − | NGTX | NGTX | NGTX |  | − | NGTX | − | 
13 | CCNc1nc(Cl)nc(NCC)n1 [Sim] | 0.246 and 0.186 and 0.202 | −0.601 and −0.1 and −0.245 | − (below the reference value) |  | 0.22 and 0.14 and 0.155 |  | − | NGTX | NGTX | NGTX | − (below the reference value) | − | NGTX | − | Classification of NGTX compounds by the method of the invention (false positives) [8]: misclassification
14 | Cc1cccc(Nc2cc(Cl)nc(SCC(=O)O)n2)c1C [WY] | 0.059 and −0.515 and 1.157 | −0.312 and −0.393 and −0.643 | − (below the reference value) |  | −0.061 and −0.158 and −0.053 | − (below the reference value) | − | NGTX | NGTX | NGTX |  | − | NGTX | − | 

Reference: patent publication US9822414B2, “In vitro method for predicting in vivo genotoxicity of chemical compounds” (priority 2011, dated 2017)
